Molecular target: Mtb-GAPDH (Mycobacterium tuberculosis, UniProt P9WN83)
Experiment: time- and concentration-dependent inactivation, Kitz-Wilson re-plot
Type: biochemical
Details: read-out: Ki

Sequence of Mtb-GAPDH (P9WN83 whole entry): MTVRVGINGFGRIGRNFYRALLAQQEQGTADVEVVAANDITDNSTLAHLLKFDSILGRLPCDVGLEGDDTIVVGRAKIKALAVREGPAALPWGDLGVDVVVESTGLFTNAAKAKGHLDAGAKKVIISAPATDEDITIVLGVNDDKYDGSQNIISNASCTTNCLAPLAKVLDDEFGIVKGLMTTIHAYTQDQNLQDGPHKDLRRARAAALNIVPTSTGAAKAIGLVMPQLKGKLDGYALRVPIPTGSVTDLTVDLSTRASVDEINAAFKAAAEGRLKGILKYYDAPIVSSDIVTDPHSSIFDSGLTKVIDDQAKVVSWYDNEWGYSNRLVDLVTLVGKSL

## NC(=O)CI [IAM, iodoacetamide]
  KI (inactivation): 7.8 mM
